From ChEMBL document CHEMBL1201862, “PubChem BioAssay data set” (2004) come the findings set out here.

Test systems include MCF7; K562; SF-268; MDA-N; OVCAR-3; OVCAR-8; TK-10; IGROV-1; NCI/ADR-RES; MDA-MB-435; NCI-H460; SF-539; U-251; 786-0; NCI-H23; DU-145; SNB-78; DMS-273; KM-20L2.
Experiment in all cases: growth of human tumour cells (NCI), 48 h

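Results reflect a 48-hour exposure of cells in 96-well plates to compound at five concentrations. Abbreviation: GI50, concentration required for 50% inhibition of growth.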 The source made the active and inactive calls. No stated cut-off is given here; in the data, active = GI50 up to about 1.1 µM and inactive = higher. Where a SMILES comes first, the peptide text is derived from it. The star is where a group is joined. Boc = CC(C)(C)OC(=O)*

Regarding `CCc1c(O)c2c(c(O)c1C(C)=O)C(=O)c1c(cc(O)c(C(=O)O)c1C(=O)O)C2=O`, the GI50 in the experiment on MCF7, in the experiment with K562, in the experiment with SF-268, in the experiment on MDA-N, in the experiment with OVCAR-3 and in the experiment on OVCAR-8 was > 100 µM (inactive) throughout. Moreover, the GI50 with TK-10, with IGROV-1, with NCI/ADR-RES, in the experiment with MDA-MB-435, in the experiment on NCI-H460 and in the experiment on SF-539 was > 100 µM (inactive) each time. Further, the GI50 with U-251, with 786-0, in the experiment on NCI-H23 and in the experiment on DU-145 was > 100 µM (inactive) throughout.
On to `Cc1ccc(S(=O)(=O)OC[C@@H]2CO2)cc1`, for which the GI50 is > 100 µM (inactive) in the experiment with K562; > 100 µM (inactive) in the experiment on SNB-78; > 100 µM (inactive) in the experiment with OVCAR-3; > 100 µM (inactive) with OVCAR-8; 44.6 µM (inactive) in the experiment on TK-10; > 100 µM (inactive) in the experiment on DMS-273. For the same compound, the GI50 in the experiment with IGROV-1, with KM-20L2, with NCI-H460, in the experiment with SF-539, with 786-0 and in the experiment with NCI-H23 was > 100 µM (inactive) each time.
Regarding `CCCN(CCC)c1cc2c(cc1F)c(=O)c(C(=O)O)cn2-c1ccc(N2CCN(C)CC2)cn1`, the GI50 is 14.9 µM (inactive) with MCF7; 17.8 µM (inactive) in the experiment with K562; 15.6 µM (inactive) in the experiment on SF-268; 20.1 µM (inactive) with MDA-N; 15.7 µM (inactive) in the experiment with OVCAR-3; 14.3 µM (inactive) with OVCAR-8. Besides, the GI50 with TK-10 was 10.4 µM (inactive); in the experiment on IGROV-1, 12.9 µM (inactive); with NCI/ADR-RES, 17.6 µM (inactive); in the experiment on MDA-MB-435, 19.4 µM (inactive); in the experiment with NCI-H460, 17.5 µM (inactive); in the experiment with SF-539 it was 17.1 µM (inactive). Further, the GI50 in the experiment on U-251 is 25.5 µM (inactive); with 786-0, 15.8 µM (inactive); with NCI-H23, 16.7 µM (inactive); in the experiment with DU-145, 19.5 µM (inactive).
For the compound `CN1NC(c2ccc(Cl)cc2)=C(C#N)C(=O)CC1c1ccccc1` (configuration not stated), the GI50 with SF-268, in the experiment with TK-10, in the experiment with DMS-273, with KM-20L2, in the experiment on NCI-H460 and in the experiment on U-251 was > 100 µM (inactive) each time. Besides, the GI50 in the experiment with 786-0 and in the experiment on NCI-H23 was > 100 µM (inactive) throughout.
With `O=C(Cc1nc2ccc(C(=O)c3ccccc3)cc2nc1O)C(=O)Nc1nc2ccccc2[nH]1`, the GI50 with SF-268 is 67 µM (inactive); in the experiment with OVCAR-3, 62.5 µM (inactive); with OVCAR-8 it was 55.1 µM (inactive); in the experiment on TK-10 it was 49.3 µM (inactive); in the experiment on DMS-273, 20.9 µM (inactive); in the experiment with IGROV-1, 93.5 µM (inactive). Further, the GI50 in the experiment with KM-20L2 is 63.5 µM (inactive); with NCI-H460, 46.5 µM (inactive); with SF-539, 71 µM (inactive); with 786-0, > 100 µM (inactive); in the experiment with NCI-H23 it was 44.6 µM (inactive).
`CSc1nc2c(c(N3CCOCC3)n1)C(O)n1c(nc3ccccc31)S2` (configuration not stated): the GI50 in the experiment on MCF7 is 23 µM (inactive); with SF-268, 26.2 µM (inactive); in the experiment on MDA-N it was > 100 µM (inactive); in the experiment on OVCAR-3 it was 69.2 µM (inactive); with OVCAR-8, 31.1 µM (inactive); in the experiment on TK-10 it was 47.5 µM (inactive). The GI50 was > 100 µM (inactive) with IGROV-1; 22.6 µM (inactive) with NCI/ADR-RES; 95.3 µM (inactive) in the experiment on MDA-MB-435; 13.6 µM (inactive) in the experiment on NCI-H460; 3.8 µM (inactive) in the experiment on SF-539; 20.8 µM (inactive) in the experiment on U-251. In addition, the results for the GI50 in the experiment on 786-0, in the experiment on NCI-H23 and in the experiment with DU-145 were 44.3 µM (inactive), 67.8 µM (inactive) and > 100 µM (inactive), respectively.
With `CC1C2CC(CC2O)C1(C)C` (configuration not stated), the GI50 with K562, with SF-268, in the experiment on MDA-N, in the experiment with OVCAR-3, in the experiment on OVCAR-8 and in the experiment on TK-10 was > 100 µM (inactive) in each case. Besides, the GI50 in the experiment with IGROV-1, in the experiment with MDA-MB-435, in the experiment on NCI-H460, in the experiment with SF-539, in the experiment with U-251 and with 786-0 was > 100 µM (inactive) throughout. In addition, the GI50 in the experiment on NCI-H23 and with DU-145 was > 100 µM (inactive) throughout.
For `CC(=O)NNc1nc(C)c(C(=O)NNC(=O)C(=O)Nc2ccccc2C#N)s1`, the GI50 in the experiment on K562, with SNB-78, in the experiment on SF-268, in the experiment with OVCAR-3, in the experiment on OVCAR-8 and with TK-10 was > 100 µM (inactive) each time. Further, the GI50 in the experiment with DMS-273, in the experiment with IGROV-1, in the experiment with KM-20L2, in the experiment on NCI-H460, in the experiment with SF-539 and with U-251 was > 100 µM (inactive) each time. Also, the GI50 in the experiment with 786-0 and in the experiment with NCI-H23 was > 100 µM (inactive) each time.
Turning to `CN1CCC(C(O)(c2ccccc2)c2ccc(Br)cc2)CC1` (configuration not stated), the GI50 was 22.6 µM (inactive) with MCF7; 16.7 µM (inactive) in the experiment on K562; 31.5 µM (inactive) in the experiment with SF-268; 15 µM (inactive) in the experiment with MDA-N; 39.4 µM (inactive) in the experiment with OVCAR-3; 50.2 µM (inactive) in the experiment on OVCAR-8. The GI50 is 25.9 µM (inactive) in the experiment on TK-10; 25.9 µM (inactive) in the experiment with IGROV-1; 34.9 µM (inactive) in the experiment with NCI/ADR-RES; 15.5 µM (inactive) in the experiment on MDA-MB-435; 23.4 µM (inactive) with NCI-H460; 17.6 µM (inactive) with SF-539. Also, the GI50 in the experiment on U-251 was 17.7 µM (inactive); in the experiment on 786-0, 14.4 µM (inactive); with NCI-H23, 46.9 µM (inactive); with DU-145, 81.5 µM (inactive).
On to `CCOC(=O)C(Cc1ccc(N=NN(C)C)cc1)NC(=O)CC1c2ccccc2-c2ccccc21` (configuration not stated), for which the GI50 is 75.2 µM (inactive) in the experiment with K562; > 100 µM (inactive) in the experiment on SF-268; 36.1 µM (inactive) with OVCAR-3; > 100 µM (inactive) in the experiment with OVCAR-8; > 100 µM (inactive) with TK-10; 55.3 µM (inactive) in the experiment on DMS-273. The GI50 with IGROV-1 is 69.8 µM (inactive); in the experiment on NCI-H460 it was 71.6 µM (inactive); in the experiment on SF-539, > 100 µM (inactive); in the experiment on U-251, 39.7 µM (inactive); with 786-0 it was 82.4 µM (inactive); in the experiment with NCI-H23, > 100 µM (inactive).
On to `COc1cc(O)c2c(=O)cc(C3(O)C=CC(=O)C=C3)oc2c1`, for which the GI50 in the experiment with K562 was < 0.01 µM (active); with SF-268, 0.428 µM (active); in the experiment on OVCAR-8, 0.0448 µM (active); in the experiment with TK-10 it was 0.0658 µM (active); in the experiment on IGROV-1, < 0.01 µM (active); in the experiment with NCI/ADR-RES, 0.0588 µM (active). Further, the GI50 was 0.675 µM (active) in the experiment on NCI-H460; < 0.01 µM (active) in the experiment with SF-539; < 0.0405 µM (active) in the experiment with U-251; 0.664 µM (active) in the experiment on NCI-H23; 0.839 µM (active) in the experiment on DU-145.
With `NC(C/C=C/P(=O)(O)O)C(=O)O` (configuration not stated), the GI50 with MCF7 was > 100 µM (inactive); in the experiment on K562, > 100 µM (inactive); with SF-268, 58.1 µM (inactive); with MDA-N it was > 100 µM (inactive); with OVCAR-3, > 100 µM (inactive); in the experiment with OVCAR-8 it was > 100 µM (inactive). For the same compound, the GI50 with TK-10, in the experiment on IGROV-1, in the experiment on NCI/ADR-RES, with MDA-MB-435, in the experiment with NCI-H460 and in the experiment on SF-539 was > 100 µM (inactive) each time. Moreover, the GI50 in the experiment on U-251, in the experiment on NCI-H23 and with DU-145 was > 100 µM (inactive) each time.
For the compound `COc1ccc(-c2cc(O)c3ccc(C)nc3n2)cc1`, the GI50 is > 100 µM (inactive) in the experiment on MCF7; > 100 µM (inactive) in the experiment with K562; > 100 µM (inactive) in the experiment with SF-268; > 100 µM (inactive) with OVCAR-8; > 100 µM (inactive) with TK-10; 43.2 µM (inactive) with IGROV-1. The GI50 in the experiment on NCI/ADR-RES, with SF-539, with NCI-H23 and in the experiment on DU-145 was > 100 µM (inactive) throughout.
With `Nc1nc(O)c2ncn(C3C=CC(CO)O3)c2n1` (configuration not stated), the GI50 was 75.2 µM (inactive) in the experiment on MCF7; > 100 µM (inactive) with MDA-N; > 100 µM (inactive) with OVCAR-3; > 100 µM (inactive) in the experiment on OVCAR-8; > 100 µM (inactive) in the experiment on TK-10; > 100 µM (inactive) in the experiment with NCI/ADR-RES. Besides, the GI50 in the experiment with MDA-MB-435, in the experiment on NCI-H460, in the experiment with U-251, with NCI-H23 and in the experiment on DU-145 was > 100 µM (inactive) throughout.
For the compound `CC(C)(C)OC(=O)NC(Cc1ccccc1)C(=O)N1CCCC1C(N)=O` (stereo not drawn) (Boc-Phe-Pro-NH2; configuration not given here), the GI50 in the experiment on MCF7, in the experiment on K562, with SF-268, with MDA-N, in the experiment with OVCAR-3 and in the experiment on OVCAR-8 was > 100 µM (inactive) in each case. Further, the GI50 in the experiment with TK-10, in the experiment with IGROV-1, in the experiment on MDA-MB-435, with NCI-H460 and with DU-145 was > 100 µM (inactive) each time.
